Several values for one entry are separate records, joined by “and”; a condition that tells them apart may be missing. Equal values may be shown once. Inconclusive results and toxic doses are left out. Rule as the data show it: active = T/C of 150% or more; inactive = T/C below 125%.
Test system: L1210 leukemia ip in BDF1 mice, survival T/C
Experiment: NCI In Vivo Anticancer Drug Screen. Data for tumor model L1210 Leukemia (intraperitoneal) in B6D2F1 (BDF1) mice
Conditions: endpoint: mean survival time, higher = longer survival
Procedure, shortened: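 Transplanted-tumor mice were given test agent; controls received vehicle only. Survival readings from the two groups were divided (treated over control).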

[1] = dose: 100.0 mg/kg/injection, schedule: Q04DX003 (ip), vehicle: saline
[2] = dose: 200.0 mg/kg/injection, schedule: Q04DX003 (ip), vehicle: saline
[3] = dose: 400.0 mg/kg/injection, schedule: Q04DX003 (ip), vehicle: saline
[4] = dose: 100.0 mg/kg/injection, schedule: Q01DX001 (ip), vehicle: saline
[5] = dose: 200.0 mg/kg/injection, schedule: Q01DX001 (ip), vehicle: saline
[6] = dose: 400.0 mg/kg/injection, schedule: Q01DX001 (ip), vehicle: saline
[7] = dose: 100.0 mg/kg/injection, schedule: Q01DX001 (ip), vehicle: Klucel (hydroxypropylcellulose) (HPC)
[8] = dose: 200.0 mg/kg/injection, schedule: Q01DX001 (ip), vehicle: Klucel (hydroxypropylcellulose) (HPC)
[9] = dose: 400.0 mg/kg/injection, schedule: Q01DX001 (ip), vehicle: Klucel (hydroxypropylcellulose) (HPC)
[10] = dose: 100.0 mg/kg/injection, schedule: Q01DX009 (ip), vehicle: Klucel (hydroxypropylcellulose) (HPC)
[11] = dose: 200.0 mg/kg/injection, schedule: Q01DX009 (ip), vehicle: Klucel (hydroxypropylcellulose) (HPC)
[12] = dose: 100.0 mg/kg/injection, schedule: Q01DX009 (ip), vehicle: saline
[13] = dose: 200.0 mg/kg/injection, schedule: Q01DX009 (ip), vehicle: saline
[14] = dose: 400.0 mg/kg/injection, schedule: Q01DX009 (ip), vehicle: saline
[15] = dose: 100.0 mg/kg/injection, schedule: Q04DX002 (ip), vehicle: Klucel (hydroxypropylcellulose) (HPC)
[16] = dose: 200.0 mg/kg/injection, schedule: Q04DX002 (ip), vehicle: Klucel (hydroxypropylcellulose) (HPC)
[17] = dose: 400.0 mg/kg/injection, schedule: Q04DX002 (ip), vehicle: Klucel (hydroxypropylcellulose) (HPC)
[18] = dose: 50.0 mg/kg/injection, schedule: Q04DX003 (ip), vehicle: Klucel (hydroxypropylcellulose) (HPC)
[19] = dose: 100.0 mg/kg/injection, schedule: Q04DX003 (ip), vehicle: Klucel (hydroxypropylcellulose) (HPC)
[20] = dose: 100.0 mg/kg/injection, schedule: Q01DX009 (ip), vehicle: saline with Tween-80

Measured: T/C

O=C(O)C(=O)c1ccc(-c2ccccc2)cc1
inactive: dose: 5.0 mg/kg/injection, schedule: Q01DX Z (ip), vehicle: carboxymethylcellulose (CMC) 102 % of control | dose: 10.0 mg/kg/injection, schedule: Q01DX Z (ip), vehicle: carboxymethylcellulose (CMC) 100 % of control | dose: 20.0 mg/kg/injection, schedule: Q01DX Z (ip), vehicle: carboxymethylcellulose (CMC) 94 % of control | dose: 40.0 mg/kg/injection, schedule: Q01DX Z (ip), vehicle: carboxymethylcellulose (CMC) 100 % of control | dose: 75.0 mg/kg/injection, schedule: Q01DX001 (ip), vehicle: carboxymethylcellulose (CMC) 101 % of control | dose: 150.0 mg/kg/injection, schedule: Q01DX001 (ip), vehicle: carboxymethylcellulose (CMC) 101 % of control

CCSC(C)C
inactive: [1] 106 % of control | [2] 107 % of control | [3] 102 % of control

Cl[Si](Cc1ccccc1)(Cc1ccccc1)Cc1ccccc1
inactive: [4] 93 % of control | [5] 88 % of control | [6] 95 % of control

CSc1ncc(CO)c(NCc2ccco2)n1
inactive: [7] 98 % of control | [8] 98 % of control | [9] 98 % of control

COc1ccc(C2C=C(C)Oc3c2c(=O)oc2ccccc32)cc1OC (configuration not stated)
inactive: dose: 6.25 mg/kg/injection, schedule: Q01DX009 (ip), vehicle: water 96 % of control | dose: 12.5 mg/kg/injection, schedule: Q01DX009 (ip), vehicle: water 98 % of control | dose: 25.0 mg/kg/injection, schedule: Q01DX009 (ip), vehicle: water 100 % of control and 91 % of control | dose: 50.0 mg/kg/injection, schedule: Q01DX009 (ip), vehicle: water 86 % of control

CC(=O)Oc1c(C)cc(O)c2ccccc12
inactive: dose: 50.0 mg/kg/injection, schedule: Q01DX009 (ip), vehicle: Klucel (hydroxypropylcellulose) (HPC) 96 % of control | [10] 111 % of control | [11] 100 % of control

CC1(C)SC2C(NC(=O)Cc3ccccc3)C(=O)N2C1C(=O)O (configuration not stated)
inactive: dose: 50.0 mg/kg/injection, schedule: Q01DX001 (ip), vehicle: saline 104 % of control | [4] 98 % of control and 107 % of control | [1] 101 % of control | [5] 96 % of control and 107 % of control | [2] 104 % of control | [6] 98 % of control | [3] 104 % of control

O=C(NCCBr)c1ccc(CCl)cc1
inactive: dose: 75.0 mg/kg/injection, schedule: Q04DX003 (ip), vehicle: Klucel (hydroxypropylcellulose) (HPC) 102 % of control | [7] 104 % of control | dose: 150.0 mg/kg/injection, schedule: Q04DX003 (ip), vehicle: Klucel (hydroxypropylcellulose) (HPC) 96 % of control | [8] 95 % of control | dose: 300.0 mg/kg/injection, schedule: Q04DX003 (ip), vehicle: Klucel (hydroxypropylcellulose) (HPC) 97 % of control | [9] 103 % of control

COC(=O)c1cc2ccccc2cc1OCC(=O)NCc1ccc(Cl)cc1
inactive: dose: 50.0 mg/kg/injection, schedule: Q01DX001 (ip), vehicle: Klucel (hydroxypropylcellulose) (HPC) 105 % of control | [7] 94 % of control | [8] 97 % of control

CNS(=O)(=O)c1ccccc1C=C(c1ccccc1)c1ccccc1
inactive: dose: 100.0 mg/kg/injection, schedule: Q01DX001 (ip), vehicle: steriod suspending solution 92 % of control | dose: 200.0 mg/kg/injection, schedule: Q01DX001 (ip), vehicle: steriod suspending solution 114 % of control | dose: 400.0 mg/kg/injection, schedule: Q01DX001 (ip), vehicle: steriod suspending solution 102 % of control

c1ccc(Oc2nnc3c4ccccc4ccn23)cc1
inactive: dose: 100.0 mg/kg/injection, schedule: Q01DX001 (ip), vehicle: carboxymethylcellulose (CMC) 98 % of control | dose: 200.0 mg/kg/injection, schedule: Q01DX001 (ip), vehicle: carboxymethylcellulose (CMC) 98 % of control | dose: 400.0 mg/kg/injection, schedule: Q01DX001 (ip), vehicle: carboxymethylcellulose (CMC) 98 % of control

Cc1ccc(S(=O)(=O)NN=C2CCS(=O)CC2)cc1 (configuration not stated)
inactive: [10] 90 % of control | [11] 97 % of control | dose: 400.0 mg/kg/injection, schedule: Q01DX009 (ip), vehicle: Klucel (hydroxypropylcellulose) (HPC) 94 % of control

CCOC(=O)c1c(N)sc2c1CCC2
inactive: dose: 100.0 mg/kg/injection, schedule: Q01DX001 (ip), vehicle: saline with Tween-80 110 % of control | [12] 102 % of control | dose: 100.0 mg/kg/injection, schedule: Q04DX002 (ip), vehicle: saline 93 % of control | dose: 200.0 mg/kg/injection, schedule: Q01DX001 (ip), vehicle: saline with Tween-80 103 % of control | [13] 107 % of control | dose: 200.0 mg/kg/injection, schedule: Q04DX002 (ip), vehicle: saline 96 % of control | dose: 400.0 mg/kg/injection, schedule: Q01DX001 (ip), vehicle: saline with Tween-80 98 % of control | dose: 400.0 mg/kg/injection, schedule: Q04DX002 (ip), vehicle: saline 89 % of control

C[CH2][Pb]([CH2]C)([CH2]C)[S]c1ccc(Cl)cc1
inactive: dose: 25.0 mg/kg/injection, schedule: Q04DX002 (sc), vehicle: olive oil, sesame oil, peanut oil 110 % of control | dose: 50.0 mg/kg/injection, schedule: Q04DX002 (sc), vehicle: olive oil, sesame oil, peanut oil 87 % of control

O=C(CS(=O)(=O)Cc1ccccc1)N1CCOCC1
inactive: [4] 95 % of control | [5] 93 % of control | [13] 89 % of control | [6] 93 % of control | [14] 102 % of control

O=C(NCc1cccc2ccccc12)Nc1ccccc1Cl
inactive: [15] 100 % of control | [16] 104 % of control | [17] 96 % of control

O=C1C=C(C23CC4CC(CC(C4)C2)C3)N2CCCc3cccc(c32)N1
inactive: [15] 97 % of control | [16] 105 % of control | [17] 97 % of control

CCN(CC)CC(=O)N1Cc2ccccc2Cc2ccccc2C1
inactive: dose: 25.0 mg/kg/injection, schedule: Q04DX003 (ip), vehicle: Klucel (hydroxypropylcellulose) (HPC) 92 % of control | [18] 100 % of control | [19] 107 % of control

COC(=O)/C=C/c1cccnc1
inactive: [18] 103 % of control | [19] 93 % of control | dose: 200.0 mg/kg/injection, schedule: Q04DX003 (ip), vehicle: Klucel (hydroxypropylcellulose) (HPC) 103 % of control

C/C(=N/NC(=S)Nc1cc(I)ccc1C)c1cc(C)ccc1O
inactive: dose: 12.5 mg/kg/injection, schedule: Q04DX002 (ip), vehicle: Klucel (hydroxypropylcellulose) (HPC) 97 % of control | dose: 25.0 mg/kg/injection, schedule: Q04DX002 (ip), vehicle: Klucel (hydroxypropylcellulose) (HPC) 102 % of control | dose: 50.0 mg/kg/injection, schedule: Q04DX002 (ip), vehicle: Klucel (hydroxypropylcellulose) (HPC) 94 % of control

BrC1(Br)C2CC/C=C\CCC21 (configuration not stated)
inactive: dose: 50.0 mg/kg/injection, schedule: Q01DX009 (ip), vehicle: saline with Tween-80 102 % of control | [20] 94 % of control

COC(=O)Nc1c(C)cc(C)cc1C
inactive: [1] 94 % of control | [2] 94 % of control | [3] 98 % of control

O=C(Nc1cccc(Cl)c1)Nc1cc(Cl)ccc1Cl
inactive: [20] 92 % of control | dose: 100.0 mg/kg/injection, schedule: Q04DX003 (ip), vehicle: saline with Tween-80 96 % of control | dose: 200.0 mg/kg/injection, schedule: Q01DX009 (ip), vehicle: saline with Tween-80 90 % of control | dose: 200.0 mg/kg/injection, schedule: Q04DX003 (ip), vehicle: saline with Tween-80 91 % of control | dose: 400.0 mg/kg/injection, schedule: Q01DX009 (ip), vehicle: saline with Tween-80 94 % of control | dose: 400.0 mg/kg/injection, schedule: Q04DX003 (ip), vehicle: saline with Tween-80 97 % of control

CCOc1ccccc1NC(=O)c1cc2ccccc2cc1O
inactive: [12] 102 % of control | [1] 98 % of control | [13] 109 % of control | [2] 102 % of control | [14] 102 % of control | [3] 100 % of control

O=C1CC(c2ccc(O)cc2)C2(O1)C(=O)OC(C(O)CO)C2O (configuration not stated)
inactive: [4] 98 % of control | [5] 101 % of control | [6] 96 % of control
